# Assay results published in patent US7530196B2, “Method for improving plant growth by application of a mixture of sulfur and complexing agent” (BASF Aktiengesellschaft, priority 2001, dated 2009).
# What was measured:
# [1] = tested on: Chinese leaves; assay: Container experiment with Chinese leaves: mineral contents in leaves; format: in vivo, Chinese leaves "Kasumi"; conditions: plant batch 1; for Iron content in ppm / Manganese content in ppm: Table 3
# Procedure: (§1) Experimental Set-Up: Container Experiment With Chinese Leaves • 1. without addition • 2. 8 mg S/pot/week • 3. 80 mg S/pot/week • 4. 2 mg sodium lignosulfonate/pot/week • 5. 20 mg sodium lignosulfonate/pot/week • 6. 10 mg mixture of 80% by weight sulfur and 20% by weight sodium lignosulfonate/pot/week • 7. 100 mg mixture of 80% by weight sulfur and 20% by weight sodium lignosulfonate/pot/week Method: Plant Species: Chinese leaves “Kasumi”, sown into P-soil in multi-cell trays, age at pricking out time into experimental containers: approx. 14 days; the same containers are planted twice. Soil from Ruchheim, loam, pH 7.4, mixed with quartz sand (for retaining the structural stability during the container experiment). PE pots/15, approx. 1 l substrate (1.5 kg). Greenhouse, 25° C., supplementary lighting suitable for assimilation. Plant food 15+10+15+2 with trace elements without chelating agent (LAB 2411D; 0.5 g/container/week). Using a syringe and cannula into the soil at a depth of approx. 1 cm to simulate trickle irrigation conditions. The additions were applied in one application weekly via the cannula. 10 mg of mixture M according to the invention/container/week correspond to approx. 5 kg/ha.
# [2] = tested on: Chinese leaves; assay: Container experiment with Chinese leaves: growth (fresh-matter yield); format: in vivo, Chinese leaves "Kasumi"
# Procedure: as §1
# [3] = S 8 mg, lignosulfonate 2 mg, mixture M 10 mg
# [4] = S 80 mg, lignosulfonate 20 mg, mixture M 100 mg
# [5] = plant batch 1, S 8 mg, lignosulfonate 2 mg, mixture M 10 mg per pot/week
# [6] = plant batch 1, S 80 mg, lignosulfonate 20 mg, mixture M 100 mg per pot/week
# [7] = plant batch 2, S 8 mg, lignosulfonate 2 mg, mixture M 10 mg per pot/week
# [8] = plant batch 2, S 80 mg, lignosulfonate 20 mg, mixture M 100 mg per pot/week
compound,measurement,setting,value
"S1SSSSSSS1 [Sulfur, sulfur]",Iron content in ppm,[1]; [3],140 ppm
same,Manganese content in ppm,[1]; [3],66 ppm
same,Iron content in ppm,[1]; [4],174 ppm
same,Manganese content in ppm,[1]; [4],67 ppm
same,Fe content in leaves,[1]; [3],140 ppm in DM
same,Iron content in % of untreated,[1]; [3],127 % of untreated
same,K content in leaves,[1]; [3],5.23 % in DM
same,Manganese content in % of untreated,[1]; [3],101 % of untreated
same,Mg content in leaves,[1]; [3],0.24 % in DM
same,Mn content in leaves,[1]; [3],66 ppm in DM
same,N content in leaves,[1]; [3],3.57 % in DM
same,P content in leaves,[1]; [3],0.46 % in DM
same,Fe content in leaves,[1]; [4],174 ppm in DM
same,Iron content in % of untreated,[1]; [4],158 % of untreated
same,K content in leaves,[1]; [4],5.57 % in DM
same,Manganese content in % of untreated,[1]; [4],103 % of untreated
same,Mg content in leaves,[1]; [4],0.25 % in DM
same,Mn content in leaves,[1]; [4],67 ppm in DM
same,N content in leaves,[1]; [4],3.86 % in DM
same,P content in leaves,[1]; [4],0.50 % in DM
same,Effect on growth (in words),"[2]; increasing additions, in particular in the first batch of plants",no growth-promoting effect
same,Fresh-matter yield,[2]; [5],106 g/container
same,Fresh-matter yield % of untreated,[2]; [5],97 % of untreated
same,Fresh-matter yield,[2]; [6],108 g/container
same,Fresh-matter yield % of untreated,[2]; [6],99 % of untreated
same,Fresh-matter yield,[2]; [7],67 g/container
same,Fresh-matter yield % of untreated,[2]; [7],96 % of untreated
same,Fresh-matter yield,[2]; [8],68 g/container
same,Fresh-matter yield % of untreated,[2]; [8],97 % of untreated
